Drawing on ChEMBL document CHEMBL1140501, “Validation of an automated procedure for the prediction of relative free energies of binding on a set of aldose reductase inhibitors” (Bioorg Med Chem, 2007), this text covers IC50 for ten molecules.

This test deals with Aldo-keto reductase family 1 member B1 (Homo sapiens, UniProt P15121). Kind of test: Inhibition of aldose reductase.
As a reminder, the IC50 is the point on the concentration scale where inhibition reaches its midpoint. Higher therefore signals weaker potency in that assay. In the case of `O=C(O)Cc1nn(Cc2nc3ccc(C(F)(F)F)cc3s2)c(=O)c2ccccc12`, it took 3.1 nM to reach half-maximal inhibition (IC50).
Consider `O=C1C[C@@]2(C(=O)N1)C(=O)N(Cc1ccc(Br)cc1F)C(=O)c1cccn12`, for which the IC50 is 15 nM.
The molecule `O=C(O)Cc1c(Cl)cccc1Cl` returned an IC50 of 4400 nM.
For `O=C1C[C@]2(C(=O)N1)C(=O)N(Cc1ccc(Br)cc1F)C(=O)c1cccn12`, the IC50 was 190 nM.
`O=C(O)COc1cc(F)ccc1C(=S)NCc1ccc(Br)cc1F` had an IC50 of 30 nM.
As for `O=C(O)Cc1ccccc1` [PHENYLACETIC ACID], the figure is 96000 nM; as for `Cc1ccccc1CC(=O)Nc1cc(C)c(S(=O)(=O)NCC(=O)O)c(C)c1`, 108 nM.
Molecule `O=C(O)Cc1nn(Cc2ccc(Br)cc2F)c(=O)c2ccccc12` [PONALRESTAT] had an IC50 of 56.5 nM.
On to `O=C(O)Cn1c(=O)n(Cc2ccc(Br)cc2F)c(=O)c2ccc(Cl)cc21` [ZENARESTAT], for which the IC50 came to 44 nM.
The molecule `O=C(O)COc1ccccc1C(=O)NCc1ccc(Br)cc1F` had an IC50 of 176 nM.
